Laboratory results from patent US12084437B2, “Halo-substituted piperidines as orexin receptor modulators” (AstraZeneca AB, priority 2016, dated 2024).
Where “and” joins values, the source holds several entries; their conditions need not be identical. Equal values may be shown once.

Tests used:
OX2 = molecular target: T1, OX2 (Homo sapiens, UniProt O43614); assay: Orexin receptor cell-based functional assay, [Ca2+]i by FLIPR, CHO-OX2 cells; details: FLIPR calcium, antagonism of EC90 of [OX]
T1 construct: expressed in transfected cells; host or cells: CHO (CHO-OX2)
T1 sequence (O43614 1-444): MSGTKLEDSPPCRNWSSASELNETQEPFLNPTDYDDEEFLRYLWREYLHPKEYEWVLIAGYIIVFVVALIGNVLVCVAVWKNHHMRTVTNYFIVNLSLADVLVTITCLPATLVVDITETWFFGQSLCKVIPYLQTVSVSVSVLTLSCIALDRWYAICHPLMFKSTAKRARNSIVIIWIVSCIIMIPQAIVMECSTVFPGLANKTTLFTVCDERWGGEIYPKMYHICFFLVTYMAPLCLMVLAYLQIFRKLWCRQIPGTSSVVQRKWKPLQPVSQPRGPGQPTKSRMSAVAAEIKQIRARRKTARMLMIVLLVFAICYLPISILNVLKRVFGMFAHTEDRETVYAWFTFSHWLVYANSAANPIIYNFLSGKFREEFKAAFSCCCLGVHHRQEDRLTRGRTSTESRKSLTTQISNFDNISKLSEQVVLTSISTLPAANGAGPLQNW
Description: (§1) Measurement of [Ca^2+]i using a FLIPR: CHO-OX1 or CHO-OX2 cells were seeded into black-walled clear-base 384-well plates (Corning, catalog #3712) at a density of 20,000 cells per well in F12-K medium supplemented with 10% FBS and then incubated in a 5% CO2, 37° C. incubator overnight to reach 90% confluency. The cells were incubated with equal volume of calcium6 loading buffer (Molecular Devices, Inc.) containing 2.5 mM probenecid at 37° C. for 2 h, followed by test compounds (dose-range 0.1 nM-10 μM) for another 30 min. The plates were then placed into a FLIPR (Molecular Devices, Inc.) to monitor fluorescence (λ excitation 488 nm, λ emission 540 nm) before and after the addition of EC90 of [OX]. Results for exemplary compounds of Formulae (I), (Ia), (Ib), (II), (IIa), (III), (IIIa), (IV), (IVa), (V), or (Va) are shown in Table 3.

OX1 = molecular target: T2, OX1 (Homo sapiens, UniProt O43613); assay: Orexin receptor cell-based functional assay, [Ca2+]i by FLIPR, CHO-OX1 cells; details: FLIPR calcium, antagonism of EC90 of [OX], read-out: OXI, IC50
T2 construct: expressed in transfected cells; host or cells: CHO (CHO-OX1)
T2 sequence (O43613 1-425): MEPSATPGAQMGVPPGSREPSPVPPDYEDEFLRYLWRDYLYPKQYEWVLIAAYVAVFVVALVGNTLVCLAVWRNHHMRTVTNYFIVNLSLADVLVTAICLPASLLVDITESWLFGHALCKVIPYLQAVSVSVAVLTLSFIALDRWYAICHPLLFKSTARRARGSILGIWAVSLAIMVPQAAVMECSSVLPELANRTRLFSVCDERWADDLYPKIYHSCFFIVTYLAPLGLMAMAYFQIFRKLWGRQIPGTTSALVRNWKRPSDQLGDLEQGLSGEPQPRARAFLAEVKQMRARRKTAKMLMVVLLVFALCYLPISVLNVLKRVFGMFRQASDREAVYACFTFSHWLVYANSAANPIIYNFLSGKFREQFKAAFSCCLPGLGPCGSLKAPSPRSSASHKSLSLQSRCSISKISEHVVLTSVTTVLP
Description: as §1, with “[OX].” for “[OX]. Results for exemplary compounds of Formulae (I), (Ia), (Ib), (II), (IIa), (III), (IIIa), (IV), (IVa), (V), or (Va) are shown in Table 3.”

| IC50 (OX2) [nM] | IC50 (OX1) | SMILES |
| --- | --- | --- |
| > 5000 | 7 nM | C[C@@H]1CC(F)(F)CN(C(=O)c2cc(Cl)ccc2-n2nccn2)[C@@H]1CNc1ncc(C(F)(F)F)cn1 [Compound 10] |
| > 5000 | 15 nM | Cc1ccc(-n2nccn2)c(C(=O)N2CC(F)(F)C[C@@H](C)[C@H]2CNc2ncc(C(F)(F)F)cn2)n1 [Compound 12] |
| > 5000 | 15 nM | Cc1ccc(-n2nccn2)c(C(=O)N2CC(F)(F)C[C@@H](C)[C@H]2CNc2ncc(Cl)cn2)n1 [Compound 13] |
| > 5000 | 52 nM | C[C@@H]1CC(F)(F)CN(C(=O)c2cc(C#N)ccc2-n2nccn2)[C@@H]1CNc1ncc(C(F)(F)F)cn1 [Compound 14] |
| > 5000 | 60 nM | Cc1ccc(-c2ccccn2)c(C(=O)N2CC(F)(F)C[C@@H](C)[C@H]2CNc2ncc(C(F)(F)F)cn2)n1 [Compound 16, ((2S,3R)-5,5-difluoro-3-methyl-2-(((5-(trifluoromethyl)pyrimidin-2-yl)amino)methyl)piperidin-1-yl)(6′-methyl-[2,3′-bipyridin]-2′-yl)methanone] |
| > 5000 | 87 nM | CCc1cnc(NC[C@@H]2[C@H](C)CC(F)(F)CN2C(=O)c2nn(C)cc2-c2ccccc2)nc1 [Compound 20] |
| > 5000 | 4 nM | Cc1cccc(-c2cn(C)nc2C(=O)N2CC(F)(F)C[C@@H](C)[C@H]2CNc2ncc(C(F)(F)F)cn2)c1 [Compound 26] |
| > 5000 |  | C[C@@H]1CC(F)(F)CN(C(=O)c2nn(C)cc2-c2ccc(F)cc2)[C@@H]1CNc1ncc(C(F)(F)F)cn1 [Compound 30] |
| > 5000 | 12 nM and 6 nM | Cc1ccc(-c2cn(C)nc2C(=O)N2CC(F)(F)C[C@@H](C)[C@H]2CNc2ncc(C(F)(F)F)cn2)cc1 [Compound 32] |
|  | 6 nM | COc1ccc(-c2sc(C)nc2C(=O)N2CC(F)(F)C[C@@H](C)[C@H]2CNc2cnc(C(F)(F)F)cn2)cc1 [Compound 141] |
| > 5000 |  | C[C@@H]1CC(F)(F)CN(C(=O)c2nn(C)cc2-c2ncc(F)cn2)[C@@H]1COc1cnc(C(F)(F)F)cn1 [Compound 244] |
| > 5000 |  | C[C@@H]1CC(F)(F)CN(C(=O)c2nn(C)cc2-c2ncc(F)cn2)[C@@H]1COc1ncc(C(F)(F)F)cc1F [Compound 245] |

Further lines, the molecule ahead of its results:

| SMILES | IC50 (OX2) [nM] | IC50 (OX1) |
| --- | --- | --- |
| C[C@@H]1CC(F)(F)CN(C(=O)c2cc(F)ccc2-n2nccn2)[C@@H]1CNc1ncc(C(F)(F)F)cn1 [Compound 1, ((2S,3R)-5,5-difluoro-3-methyl-2-(((5-(trifluoromethyl)pyrimidin-2-yl)amino)methyl)piperidin-1-yl)(5-fluoro-2-(2H-1,2,3-triazol-2-yl)phenyl)methanone] | > 5000 | 192 nM |
| C[C@@H]1CC(F)(F)CN(C(=O)c2cc(Cl)ccc2-n2ncnn2)[C@@H]1CNc1ncc(C(F)(F)F)cn1 [Compound 4] | > 5000 | 81 nM |
| Cc1ccc(-n2nccn2)c(C(=O)N2CC(F)(F)C[C@@H](C)[C@H]2CNc2ncc(C(F)(F)F)cn2)c1 [Compound 5] | > 5000 | 10 nM |
| Cc1ccc(-n2nccn2)c(C(=O)N2CC(F)(F)C[C@@H](C)[C@H]2CNc2ncc(Cl)cn2)c1 [Compound 6] | > 5000 | 8 nM |
| Cc1ccc(-n2ncc(C)n2)c(C(=O)N2CC(F)(F)C[C@@H](C)[C@H]2CNc2ncc(C(F)(F)F)cn2)c1 [Compound 7] | > 5000 | 7 nM |
| Cc1ccc(-c2nnn(C)n2)c(C(=O)N2CC(F)(F)C[C@@H](C)[C@H]2CNc2ncc(C(F)(F)F)cn2)c1 [Compound 8] | > 5000 | 8 nM |
| Cc1ccc(-c2nnn(C)n2)c(C(=O)N2CC(F)(F)C[C@@H](C)[C@H]2CNc2ncc(Cl)cn2)c1 [Compound 9] | > 5000 | 6 nM |
| C[C@@H]1CC(F)(F)CN(C(=O)c2cc(Cl)ccc2-n2nccn2)[C@@H]1CNc1ncc(Cl)cn1 [Compound 11] | > 5000 | 8 nM |
| C[C@@H]1CC(F)(F)CN(C(=O)c2cc(C#N)ccc2-n2nccn2)[C@@H]1CNc1ncc(Cl)cn1 [Compound 15] | > 5000 | 46 nM |
| Cc1ccc(-c2ncccn2)c(C(=O)N2CC(F)(F)C[C@@H](C)[C@H]2CNc2ncc(C(F)(F)F)cn2)n1 [Compound 17, ((2S,3R)-5,5-difluoro-3-methyl-2-(((5-(trifluoromethyl)pyrimidin-2-yl)amino)methyl)piperidin-1-yl)(6-methyl-3-(pyrimidin-2-yl)pyridin-2-yl)methanone] | > 5000 | 8 nM |
| Cc1ccc(-c2ncccn2)c(C(=O)N2CC(F)(F)C[C@@H](C)[C@H]2CNc2ncc(Cl)cn2)n1 [Compound 18, ((2S,3R)-2-(((5-chloropyrimidin-2-yl)amino)methyl)-5,5-difluoro-3-methylpiperidin-1-yl)(6-methyl-3-(pyrimidin-2-yl)pyridin-2-yl)methanone] | > 5000 | 18 nM |
| Cc1noc(-c2ccc(Cl)cc2C(=O)N2CC(F)(F)C[C@@H](C)[C@H]2CNc2ncc(C(F)(F)F)cn2)n1 [Compound 19] | > 5000 | 10 nM |
| C[C@@H]1CC(F)(F)CN(C(=O)c2nn(C)cc2-c2ccccc2)[C@@H]1CNc1ncc(C(F)(F)F)cn1 [Compound 21] | > 5000 | 2 nM |
| C[C@@H]1CC(F)(F)CN(C(=O)c2nn(C)cc2-c2ccccc2)[C@@H]1CNc1ncc(Cl)cn1 [Compound 22] | > 5000 | 7 nM |
| C[C@@H]1CC(F)(F)CN(C(=O)c2nn(C)cc2-c2ccccc2F)[C@@H]1CNc1ncc(C(F)(F)F)cn1 [Compound 23] | > 5000 |  |
| Cc1ccccc1-c1cn(C)nc1C(=O)N1CC(F)(F)C[C@@H](C)[C@H]1CNc1ncc(C(F)(F)F)cn1 [Compound 24] | > 5000 | 385 nM |
| C[C@@H]1CC(F)(F)CN(C(=O)c2nn(C)cc2-c2cccc(F)c2)[C@@H]1CNc1ncc(C(F)(F)F)cn1 [Compound 25] | > 5000 | 4 nM |
| COc1cccc(-c2cn(C)nc2C(=O)N2CC(F)(F)C[C@@H](C)[C@H]2CNc2ncc(C(F)(F)F)cn2)c1 [Compound 29] | > 5000 | 4 nM |
| C[C@@H]1CC(F)(F)CN(C(=O)c2nn(C)cc2-c2ccc(F)cc2)[C@@H]1CNc1ncc(Cl)cn1 [Compound 31] | > 5000 | 4 nM |
| Cc1cccc(-c2sc(C)nc2C(=O)N2CC(F)(F)C[C@@H](C)[C@H]2CNc2ncc(C(F)(F)F)cn2)c1 [Compound 63] | > 5000 |  |
| Cc1nc(C(=O)N2CC(F)(F)C[C@@H](C)[C@H]2CNc2cnc(C(F)(F)F)cn2)c(-c2ccc(F)cc2)s1 [Compound 137] |  | 5 nM |
| Cc1nc(C(=O)N2CC(F)(F)C[C@@H](C)[C@H]2CNc2cnc(C(F)(F)F)cn2)c(-c2cc(F)ccn2)s1 [Compound 150] | > 5000 |  |
| C[C@@H]1CC(F)(F)CN(C(=O)c2cc(Cl)ccc2-c2nnn(C)n2)[C@@H]1CNc1ccc(C(F)(F)F)cn1 [Compound 182] |  | 17 nM |
| Cc1ccc(-c2sc(C)nc2C(=O)N2CC(F)(F)C[C@@H](C)[C@H]2CNc2ccc(C(F)(F)F)cn2)nc1 [Compound 197] | > 5000 |  |
| Cc1ccc(-c2cn(C)nc2C(=O)N2CC(F)(F)C[C@@H](C)[C@H]2COc2ccc(C(F)(F)F)cn2)nc1 [Compound 206, ((2S,3R)-5,5-difluoro-3-methyl-2-(((5-(trifluoromethyl)pyridin-2-yl)oxy)methyl)piperidin-1-yl)(1-methyl-4-(5-methylpyridin-2-yl)-1H-pyrazol-3-yl)methanone] |  | 22 nM |
